The text below walks through data of ChEMBL document CHEMBL1128084, “A general method for synthesis of ether phospholipids with -linolenic acid and their properties” (Bioorg Med Chem Lett, 1995).

The assay in a line: Inhibiting aggregation of rabbit platelet induced by platelet-activating factor. The conditions noted are these: Oryctolagus cuniculus; concentration not given here.

On to `CC/C=C/C/C=C/C/C=C/CCCCCCCCC(=O)O[C@@H](COCCCCCCCCCCCCCCCC)COP(=O)([O-])OCC[N+](C)(C)C`, for which the inhibition is 4.3%.

Broadly, the inhibition is how much of the control response was suppressed. A low value points to a weak effect.
